Assay results reported in paper PMC11460631, “Inhibition of transient receptor potential vanilloid 3 channels by antimalarial hydroxychloroquine alleviates TRPV3-dependent dermatitis” (The Journal of Biological Chemistry, 2024).
Where two headings read alike, the source gives them in different places.

Key:
[1] = target: T1, TRPV3 (Homo sapiens, UniProt Q8NET8); test: Whole-cell patch-clamp recordings of TRPV3 currents in transfected HEK293T cells; assay type: cell-based; conditions: for IC50: ± 80 mV
T1 construct: YFP or GFP; expressed in transfected cells; host or cells: HEK293T
T1 sequence (Q8NET8 1-790): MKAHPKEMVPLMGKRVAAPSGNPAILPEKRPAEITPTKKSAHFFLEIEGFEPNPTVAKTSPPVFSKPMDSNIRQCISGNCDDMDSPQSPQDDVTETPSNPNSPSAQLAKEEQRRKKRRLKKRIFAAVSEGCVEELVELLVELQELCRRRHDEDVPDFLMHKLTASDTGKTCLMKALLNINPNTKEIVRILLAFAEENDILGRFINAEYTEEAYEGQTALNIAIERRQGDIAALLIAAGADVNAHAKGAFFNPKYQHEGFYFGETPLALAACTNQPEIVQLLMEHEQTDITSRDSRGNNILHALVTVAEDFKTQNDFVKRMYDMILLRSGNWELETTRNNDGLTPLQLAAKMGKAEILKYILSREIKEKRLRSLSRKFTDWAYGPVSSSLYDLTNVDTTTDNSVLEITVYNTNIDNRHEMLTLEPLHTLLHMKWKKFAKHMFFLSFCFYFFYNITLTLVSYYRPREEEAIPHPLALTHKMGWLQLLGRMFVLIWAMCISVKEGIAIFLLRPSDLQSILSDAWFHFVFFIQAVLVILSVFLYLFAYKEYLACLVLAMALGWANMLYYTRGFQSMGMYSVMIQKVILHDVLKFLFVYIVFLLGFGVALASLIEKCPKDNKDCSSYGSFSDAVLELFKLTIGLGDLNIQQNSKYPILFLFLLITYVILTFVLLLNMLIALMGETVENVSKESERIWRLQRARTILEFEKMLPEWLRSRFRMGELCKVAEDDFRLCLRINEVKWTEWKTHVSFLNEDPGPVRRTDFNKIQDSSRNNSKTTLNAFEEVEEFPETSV
Method: (§1) HEK293T cells are cultured using Dulbecco's modified Eagle's medium containing 10% fetal bovine serum and 1% penicillin-streptomycin in a cell incubator with 5% CO2 at 37 °C. Plasmids of murine TRPV1, TRPV4, TRPM8, and human TRPV3, TRPA1 are labeled with YFP or GFP as indicators for subsequent electrophysiological recordings. Complementary DNA constructs of ion channels were transiently transfected with Lipofectamine 3000 (Invitrogen). And 12 to 18 h after transient transfection, electrophysiological recordings were performed.
(§2) Patch-clamp recordings were carried out with a HEKA EPC10 amplifier controlled by PatchMaster software (HEKA; https://www.heka.com/products/products_main.html#soft_pm) ([36]). Patch pipettes were prepared from borosilicate glass and fire-polished to the resistance of 3 to 8 MΩ by P-97 puller for whole-cell recordings. For single-channel recordings, patch pipettes were fire-polished to a higher resistance of 6 to 10 MΩ. Both bath solution and pipette solution contained 130 mM NaCl, 10 mM glucose, 0.2 mM EDTA, and 3 mM Hepes and were adjusted to pH 7.2 to 7.4 with NaOH. Whole-cell recordings and single-channel recordings were performed at ± 80 mV. The current was sampled at 10 kHz and filtered at 2.9 kHz. All recordings were performed at room temperature (25 °C). A gravity-driven system (RSC-200, Bio-Logic) with freely rotated perfusion tubes was used for the perfusion of ligands. Bath and ligand solutions were delivered through separate tubes to minimize the mixing of solutions. Patch pipette holding cells were placed in front of the perfusion tube outlet for perfusion.
All data from whole-cell recordings were analyzed in Igor Pro (WaveMetrics). IC50 values were determined by fitting the Hill equation to concentration-response relationships. Data are shown as mean ± SEM. Statistical significance between two groups was conducted with an unpaired two-tailed t test, and statistical significance among multiple groups was conducted with one-way ANOVA using Dunnett’s multiple comparisons test or Tukey's post hoc test. Differences were regarded as statistically significant with ∗, p < 0.05; ∗∗, p < 0.01; ∗∗∗, p < 0.001; ∗∗∗∗, and p < 0.0001; N.S., no significance.

[2] = target: T1, TRPV3; test: Single-channel recordings of TRPV3 in the inside-out configuration; assay type: cell-based; conditions: −80 mV
Method: as §1
as §2, with “perfusion. Igor Pro versions 5.05 and 9.05 (WaveMetrics; https://www.wavemetrics.com/products/igorpro) were used to analyze the data.” for “perfusion.”

With `CCN(CCO)CCCC(C)Nc1ccnc2cc(Cl)ccc12` (stereo not drawn) [HCQ, hydroxychloroquine] the IC50 ([1]; HEK293T cells expressing TRPV3, whole-cell, 1 mM 2-APB, read-out: IC50, inhibition of TRPV3 currents induced by 1 mM 2-APB) was 51.7 ± 4.78 µM, the inhibition at 100 µM ([1]; HEK-293T, 100 μM HCQ, 1 mM 2-APB, read-out: inhibition of WT TRPV3 channels) was 75.6% and the IC50 ([1]; whole-cell, 1 mM carvacrol, read-out: IC50, inhibition of TRPV3 current induced by carvacrol) was 1.07 ± 0.38 µM. For the same molecule, the “TRPV3 channel open probability (Po)” value ([2]; 50 μM HCQ with 1 mM 2-APB) was 0.50 ± 0.03, the “TRPV3 channel open probability (Po)” value ([2]; 100 μM HCQ with 1 mM 2-APB) was 0.13 ± 0.04 and the single-channel conductance ([2]; HCQ with 1 mM 2-APB, HCQ concentration not stated in the sentence (50 and 100 μM tested)) was 37.97 ± 2.96 pS.
